Experimental data reported in patent publication US12145917B2, “Crystalline forms of a compound for treating or preventing gout or hyperuricemia” (Arthrosi Therapeutics, Inc., priority 2019, dated 2024).

Experiments:
[1] = cited from earlier work
[2] = target: T1, human URAT1 uptake transporter (Homo sapiens, UniProt Q96S37); assay: In vitro interaction study with the human URAT1 uptake transporter (uric acid uptake in MDCKII cells); assay type: cell-based; details: MDCK-II, at a concentration of 10 μM, read-out: Inhibition of URAT1 mediated uric acid accumulation
T1 construct: expressed in transfected cells
T1 sequence (Q96S37 1-553): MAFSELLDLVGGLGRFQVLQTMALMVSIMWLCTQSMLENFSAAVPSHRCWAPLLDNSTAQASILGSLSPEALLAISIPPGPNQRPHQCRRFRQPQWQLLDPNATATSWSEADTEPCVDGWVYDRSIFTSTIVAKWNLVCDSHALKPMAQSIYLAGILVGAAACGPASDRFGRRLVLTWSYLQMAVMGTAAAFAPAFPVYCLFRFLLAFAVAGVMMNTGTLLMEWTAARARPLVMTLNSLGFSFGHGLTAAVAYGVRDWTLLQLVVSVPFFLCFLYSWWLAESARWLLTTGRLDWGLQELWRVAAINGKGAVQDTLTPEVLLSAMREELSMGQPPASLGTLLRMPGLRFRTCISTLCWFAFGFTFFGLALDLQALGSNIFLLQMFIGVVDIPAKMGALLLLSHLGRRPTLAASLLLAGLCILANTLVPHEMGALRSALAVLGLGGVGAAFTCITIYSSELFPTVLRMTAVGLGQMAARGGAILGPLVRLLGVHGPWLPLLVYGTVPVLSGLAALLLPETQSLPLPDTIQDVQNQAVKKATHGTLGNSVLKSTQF
Description: Uptake experiments were performed using MDCKII cells stably expressing the human URAT1 uptake transporter. Cells were cultured at 37±1° C. in an atmosphere of 95:5 air:CO2 and were plated onto standard 96-well tissue culture plates at the cell number described in Table 5.
Radiolabeled probe substrate transport was determined by measuring an aliquot (35 μL) from each well for liquid scintillation counting.

[3] = target: CYP2C9 (Homo sapiens, UniProt P11712); assay: CYP2C9 metabolic pathway / metabolite formation; assay type: in vitro ADME
Chain of CYP2C9 (P11712 whole entry): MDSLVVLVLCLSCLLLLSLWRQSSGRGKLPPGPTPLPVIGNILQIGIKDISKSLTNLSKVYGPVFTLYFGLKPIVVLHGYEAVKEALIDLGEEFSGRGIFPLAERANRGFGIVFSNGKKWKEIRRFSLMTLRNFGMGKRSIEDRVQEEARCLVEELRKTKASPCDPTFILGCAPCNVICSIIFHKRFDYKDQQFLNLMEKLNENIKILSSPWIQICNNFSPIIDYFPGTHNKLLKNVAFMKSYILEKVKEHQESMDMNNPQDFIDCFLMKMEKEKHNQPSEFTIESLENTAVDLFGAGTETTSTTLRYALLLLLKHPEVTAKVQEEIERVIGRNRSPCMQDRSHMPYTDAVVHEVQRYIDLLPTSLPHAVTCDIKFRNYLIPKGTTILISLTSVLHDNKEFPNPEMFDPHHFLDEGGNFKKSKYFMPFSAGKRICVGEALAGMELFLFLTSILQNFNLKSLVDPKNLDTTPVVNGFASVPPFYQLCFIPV

[4] = Stability in human microsomes; assay type: in vitro ADME
[5] = Dynamic vapor sorption (DVS); assay type: physicochemical; details: for Post-GVS analysis by XRPD (change of form): after DVS cycle 0-90-0% RH; for Moisture uptake (DVS): between 0-90% RH
Description: DVS studies were performed using a DVS Intrinsic (SMS, UK) or IGASORP (Hiden, UK). 10 to 50 mg of compound was transferred into the DVS and the weight change recorded with respect to a varying atmospheric humidity at 25° C. using the following parameters:
Drying at 40° C. until dm/dt<±0.002%/min
Min time: 30 min, Max time: 120 min (for IGASORP)
Characterize the sample after the DVS experiment by XRPD

Structure (SMILES) | Hygroscopicity ([5]; DVS, 25° C.) | Post-GVS analysis by XRPD (change of form) [5] | Moisture uptake (DVS) ([5]; 25° C.) [%] | inhibition at 10 µM [2] [%] | further results
CCc1oc2ccccc2c1C(=O)c1cc(Br)c(O)c(Br)c1 [Benzbromarone] |  |  |  | 98 | Serum uric acid (sUA) level reached ([1]; chronic therapy): < 6 mg/dL; Hepatotoxicity ([1]; in certain patients): associated with hepatotoxicity
[2H]c1c([2H])c([2H])c2c(C(=O)c3cc(Br)c(O)c(Br)c3)c(C(C)O)oc2c1[2H] (centres unmarked) [Compound 1, (3,5-dibromo-4-hydroxyphenyl)(2-(1-hydroxyethyl)benzofuran-3-yl-4,5,6,7-d4)methanone] |  |  |  | 100 | Formation of 6-OH benzbromarone and 5,6-di-OH benzbromarone metabolites [3]: not formed; CYP2C9 metabolic pathway ([3]; compared with benzbromarone): significantly reduced; Stability in human microsomes compared with benzbromarone [4]: more stable than benzbromarone in human microsomes
[2H]c1c([2H])c([2H])c2c(C(=O)c3cc(Br)c(O)c(Br)c3)c(C(C)O)oc2c1[2H] (centres unmarked) [Form 1, (3,5-dibromo-4-hydroxyphenyl)(2-(1-hydroxyethyl)benzofuran-3-yl-4,5,6,7-d4)methanone] |  |  |  |  | RH at which the dehydrated form converted to hydrated form ([5]; DVS, 25° C.): ≥ 20%

Second part, led by results:

Hygroscopicity ([5]; DVS, 25° C.) | Post-GVS analysis by XRPD (change of form) [5] | Moisture uptake (DVS) ([5]; 25° C.) [%] | Structure (SMILES) | inhibition at 10 µM [2] [%] | further results
non-hygroscopic | no change | 0.08 | [2H]c1c([2H])c([2H])c2c(C(=O)c3cc(Br)c(O)c(Br)c3)c(C(C)O)oc2c1[2H] (centres unmarked) [Form 2, (3,5-dibromo-4-hydroxyphenyl)(2-(1-hydroxyethyl)benzofuran-3-yl-4,5,6,7-d4)methanone] |  | 
non-hygroscopic | no change | 0.04 | [2H]c1c([2H])c([2H])c2c(C(=O)c3cc(Br)c(O)c(Br)c3)c(C(C)O)oc2c1[2H] (centres unmarked) [Form 3, (3,5-dibromo-4-hydroxyphenyl)(2-(1-hydroxyethyl)benzofuran-3-yl-4,5,6,7-d4)methanone] |  | 
